The source of these data is ChEMBL document CHEMBL3608229, “Saccharothrixones A-D, Tetracenomycin-Type Polyketides from the Marine-Derived Actinomycete Saccharothrix sp. 10-10” (J Nat Prod, 2015).

Experiment [1] relates to Enterococcus faecium. In words: Antibacterial activity against vancomycin-resistant Enterococcus faecium 12-3 after 18 hrs by agar dilution method. The class given is functional. The settings on record: 12-3, 18 h. (In agar dilution, organisms are placed on agar that contains the substance at set levels.)
The subject of experiment [2] is Enterococcus faecium. In words: Antibacterial activity against vancomycin-resistant Enterococcus faecium ATCC 700221 after 18 hrs by agar dilution method. Format: functional. Particulars: ATCC 700221, 18 h.
In experiment [3] the test system is Klebsiella pneumoniae. In words: Antibacterial activity against extended spectrum beta-lactamase producing Klebsiella pneumoniae ATCC 700603 after 18 hrs by agar dilution method. Format: functional. The settings on record: ATCC 700603, 18 h.
Experiment [4] relates to Staphylococcus epidermidis. In words: Antibacterial activity against methicillin-resistant Staphylococcus epidermidis 12-6 after 18 hrs by agar dilution method. Format: functional. The settings on record: 12-6, 18 h.
Experiment [5] relates to Staphylococcus epidermidis. Put plainly: Antibacterial activity against methicillin-resistant Staphylococcus epidermidis 12-8 after 18 hrs by agar dilution method. The class given is functional. The settings on record: 12-8, 18 h.
In the next experiment the test system is MCF7. Put plainly: Cytotoxicity against human MCF7 cells assessed as growth inhibition after 48 hrs by sulforhodamine B assay. Format: functional, cell-based. Particulars: MCF7, 48 h. For orientation: The SRB assay estimates cell density from bound dye.
Experiment [6] concerns Klebsiella pneumoniae. In words: Antibacterial activity against NDM-1 producing Klebsiella pneumoniae ATCC BAA-2146 after 18 hrs by agar dilution method. Format: functional. Particulars: ATCC BAA-2146, 18 h.
In experiment [7] the test system is Staphylococcus aureus. In words: Antibacterial activity against methicillin-resistant Staphylococcus aureus 12-28 after 18 hrs by agar dilution method. Format: functional. The settings on record: 12-28, 18 h.
Another experiment relates to Morganella morganii. Put plainly: Antibacterial activity against beta-lactamase producing Morganella morganii ATCC 25830 after 18 hrs by agar dilution method. The settings on record: ATCC 25830, 18 h. The class given is functional.
For experiment [8], the system named is Acinetobacter calcoaceticus. Put plainly: Antibacterial activity against beta-lactamase producing Acinetobacter calcoaceticus ATCC 19606 after 18 hrs by agar dilution method. The class given is functional. The settings on record: ATCC 19606, 18 h.
Experiment [9] relates to Enterococcus faecalis. Put plainly: Antibacterial activity against vancomycin-resistant Enterococcus faecalis 12-5 after 18 hrs by agar dilution method. The class given is functional. The settings on record: 12-5, 18 h.
The test system of experiment [10] is Staphylococcus aureus. In words: Antibacterial activity against methicillin-resistant Staphylococcus aureus 12-33 after 18 hrs by agar dilution method. Format: functional. Particulars: 12-33, 18 h.
For another experiment, the system named is Escherichia coli. In words: Antibacterial activity against beta-lactamase producing Escherichia coli ATCC 25922 after 18 hrs by agar dilution method. The settings on record: ATCC 25922, 18 h. Format: functional.
The subject of experiment [11] is Staphylococcus aureus. Put plainly: Antibacterial activity against methicillin-susceptible Staphylococcus aureus 15 after 18 hrs by agar dilution method. The class given is functional. Particulars: Staphylococcus aureus, 15, 18 h.
In experiment [12] the test system is Staphylococcus epidermidis. In words: Antibacterial activity against methicillin-susceptible Staphylococcus epidermidis ATCC 12228 after 18 hrs by agar dilution method. Format: functional. Particulars: ATCC 12228, 18 h.
For experiment [13], the system named is Enterococcus faecium. Put plainly: Antibacterial activity against vancomycin-resistant Enterococcus faecium 12-1 after 18 hrs by agar dilution method. Format: functional. The settings on record: 12-1, 18 h.
The test system of experiment [14] is Enterococcus faecalis. In words: Antibacterial activity against vancomycin-resistant Enterococcus faecalis ATCC 51299 after 18 hrs by agar dilution method. The class given is functional. Particulars: ATCC 51299, 18 h.
Experiment [15] relates to Enterococcus faecalis. Put plainly: Antibacterial activity against vancomycin-resistant Enterococcus faecalis 09-9 after 18 hrs by agar dilution method. The class given is functional. The settings on record: 09-9, 18 h.
Experiment [16] concerns Enterococcus faecalis. In words: Antibacterial activity against vancomycin-susceptible Enterococcus faecalis ATCC 29212 after 18 hrs by agar dilution method. The class given is functional. The settings on record: ATCC 29212, 18 h.
The next experiment concerns Pseudomonas aeruginosa. In words: Antibacterial activity against beta-lactamase producing Pseudomonas aeruginosa ATCC 27853 after 18 hrs by agar dilution method. Format: functional. The settings on record: ATCC 27853, 18 h.
In another experiment the test system is Proteus vulgaris. Put plainly: Antibacterial activity against beta-lactamase producing Proteus vulgaris ATCC 29905 after 18 hrs by agar dilution method. Particulars: ATCC 29905, 18 h. The class given is functional.
The subject of the next experiment is K562. Put plainly: Cytotoxicity against human K562 cells assessed as growth inhibition after 48 hrs by sulforhodamine B assay. The class given is functional, cell-based. Particulars: K562, 48 h.
The subject of experiment [17] is Staphylococcus aureus. Put plainly: Antibacterial activity against methicillin-susceptible Staphylococcus aureus ATCC 29213 after 18 hrs by agar dilution method. The class given is functional. The settings on record: ATCC 29213, 18 h.
The subject of experiment [18] is Staphylococcus aureus. In words: Antibacterial activity against methicillin-resistant Staphylococcus aureus ATCC 33591 after 18 hrs by agar dilution method. Format: functional. Particulars: ATCC 33591, 18 h.
The next experiment relates to HepG2. Put plainly: Cytotoxicity against human HepG2 cells assessed as growth inhibition after 48 hrs by sulforhodamine B assay. Format: functional, cell-based. The settings on record: HepG2, 48 h.

As a reminder, the MIC is the smallest concentration in the dilution series that meets the test's criterion for growth inhibition. Usually IC50 stands for the midpoint of a concentration-inhibition curve. As for `COC(=O)c1c(OC)cc2cc3c(c(O)c2c1C)C(=O)O[C@@H]3[C@@]1(O)[C@H](O)C(OC)=CC(=O)[C@@H]1O`, the MIC (with Enterococcus faecium [1]; against Enterococcus faecium [2]; in the experiment with Klebsiella pneumoniae [3]; in [4]; in experiment [5]; in the experiment on Klebsiella pneumoniae [6]) was more than 64 µg/mL throughout. Further, the MIC (in the experiment with Staphylococcus aureus [7]; in the experiment with Morganella morganii; in experiment [8]; against Enterococcus faecalis [9]; with Staphylococcus aureus [10]; against Escherichia coli) was more than 64 µg/mL throughout. Moreover, the MIC (against Staphylococcus aureus [11]; in experiment [12]; against Enterococcus faecium [13]; against Enterococcus faecalis [14]; in the experiment on Enterococcus faecalis [15]; in the experiment on Enterococcus faecalis [16]) was more than 64 µg/mL in each case. Moreover, the MIC against Pseudomonas aeruginosa, in the experiment with Proteus vulgaris, against Staphylococcus aureus [17] and in the experiment on Staphylococcus aureus [18] was more than 64 µg/mL in each case. The IC50 with MCF7, in the experiment on K562 and in the experiment with HepG2 was more than 100 µM in each case.

Consider `COC(=O)c1c(OC)cc2cc3c(c(O)c2c1C)C(=O)O[C@@H]3[C@@]1(O)[C@H](O)C(OC)=CC(=O)[C@@H]1OC`, for which the minimum inhibitory concentration (MIC) (in the experiment on Enterococcus faecium [1]; in the experiment with Enterococcus faecium [2]; against Klebsiella pneumoniae [3]; in [4]; in experiment [5]; in the experiment on Klebsiella pneumoniae [6]) was more than 64 µg/mL in each case. Moreover, the MIC (in the experiment with Staphylococcus aureus [7]; in the experiment on Morganella morganii; in [8]; against Enterococcus faecalis [9]; with Staphylococcus aureus [10]; against Escherichia coli) was more than 64 µg/mL throughout. Besides, the MIC (with Staphylococcus aureus [11]; in experiment [12]; with Enterococcus faecium [13]; against Enterococcus faecalis [14]; in the experiment on Enterococcus faecalis [15]; against Enterococcus faecalis [16]) was more than 64 µg/mL in each case. Further, the MIC with Pseudomonas aeruginosa, with Proteus vulgaris, against Staphylococcus aureus [17] and against Staphylococcus aureus [18] was more than 64 µg/mL each time. For the same compound, the IC50 with MCF7, in the experiment on K562 and in the experiment on HepG2 was more than 100 µM each time.

As to `COC(=O)c1c(OC)cc2cc3c(c(O)c2c1C)C(=O)O[C@H]3[C@@]1(O)[C@H](O)C(OC)=CC(=O)[C@H]1OC`, the MIC (in the experiment on Enterococcus faecium [1]; against Enterococcus faecium [2]; against Klebsiella pneumoniae [3]; in experiment [4]; in [5]; with Klebsiella pneumoniae [6]) was more than 64 µg/mL in each case. Also, the minimal inhibitory concentration (MIC) (in the experiment with Staphylococcus aureus [7]; in the experiment with Morganella morganii; in [8]; in the experiment on Enterococcus faecalis [9]; in the experiment with Staphylococcus aureus [10]; with Escherichia coli) was more than 64 µg/mL throughout. In addition, the MIC (against Staphylococcus aureus [11]; in [12]; in the experiment on Enterococcus faecium [13]; in the experiment with Enterococcus faecalis [14]; against Enterococcus faecalis [15]; with Enterococcus faecalis [16]) was more than 64 µg/mL throughout. Moreover, the minimum inhibitory concentration (MIC) with Pseudomonas aeruginosa, in the experiment on Proteus vulgaris, against Staphylococcus aureus [17] and in the experiment on Staphylococcus aureus [18] was more than 64 µg/mL in each case. Further, the 50% inhibitory concentration (IC50) with MCF7, in the experiment with K562 and in the experiment on HepG2 was more than 100 µM each time.

For the compound `COC(=O)c1c(OC)cc2cc3c(c(O)c2c1C)C(=O)[C@@]1(O)C(OC)=CC(=O)[C@H](OC)[C@@]1(O)C3=O`, the MIC (against Enterococcus faecium [1]; against Enterococcus faecium [2]; against Klebsiella pneumoniae [3]; in [4]; in experiment [5]; against Klebsiella pneumoniae [6]) was more than 64 µg/mL each time. The MIC (against Staphylococcus aureus [7]; against Morganella morganii; in experiment [8]; in the experiment on Enterococcus faecalis [9]; against Staphylococcus aureus [10]; in the experiment on Escherichia coli) was more than 64 µg/mL in each case. Moreover, the minimal inhibitory concentration (MIC) (in the experiment with Staphylococcus aureus [11]; in [12]; against Enterococcus faecium [13]; in the experiment with Enterococcus faecalis [14]; in the experiment with Enterococcus faecalis [15]; in the experiment with Enterococcus faecalis [16]) was more than 64 µg/mL each time. Further, the MIC against Pseudomonas aeruginosa, in the experiment with Proteus vulgaris, in the experiment on Staphylococcus aureus [17] and in the experiment on Staphylococcus aureus [18] was more than 64 µg/mL in each case. The results for the IC50 with MCF7, in the experiment with K562 and in the experiment on HepG2 were 16.2 µM, 20.8 µM and 7.5 µM, respectively.

As for `COC(=O)c1c(OC)cc2cc3c(c(O)c2c1C)C(=O)[C@]1(OC)C(=O)C=C(OC)[C@@H](O)[C@]1(O)C3=O`, the IC50 stood at 1.5 µM in the experiment with MCF7, 5.2 µM with K562 and 1.6 µM with HepG2.

As to `COc1cccc2c1C(=O)c1c(O)c3c(c(O)c1C2=O)C[C@@](O)(C(=O)CO)C[C@@H]3O[C@H]1C[C@H](N)[C@H](O)[C@H](C)O1` [DOXORUBICIN], the concentration for half-maximal inhibition (IC50) was determined as 10.9 µM with K562 and 5.4 µM in the experiment on HepG2.

As for `C[C@H]1COc2c(N3CCN(C)CC3)c(F)cc3c(=O)c(C(=O)O)cn1c23.C[C@H]1COc2c(N3CCN(C)CC3)c(F)cc3c(=O)c(C(=O)O)cn1c23.O` [LEVOFLOXACIN], the MIC against Enterococcus faecium [1] is 64 µg/mL; against Enterococcus faecium [2], 128 µg/mL; in experiment [4] it was 0.5 µg/mL; in experiment [5] it was 8 µg/mL; against Klebsiella pneumoniae [6], more than 128 µg/mL; against Staphylococcus aureus [7], 0.25 µg/mL. Moreover, the minimal inhibitory concentration (MIC) is 0.06 µg/mL with Morganella morganii; 0.5 µg/mL in experiment [8]; 0.5 µg/mL in the experiment on Enterococcus faecalis [9]; 128 µg/mL in the experiment with Staphylococcus aureus [10]; not above 0.03 µg/mL with Escherichia coli; 0.25 µg/mL with Staphylococcus aureus [11]. The MIC is 0.25 µg/mL in [12]; 32 µg/mL with Enterococcus faecium [13]; 0.5 µg/mL in the experiment with Enterococcus faecalis [14]; more than 128 µg/mL against Enterococcus faecalis [15]; 0.5 µg/mL against Enterococcus faecalis [16]; 0.5 µg/mL in the experiment on Pseudomonas aeruginosa. In addition, the minimum inhibitory concentration (MIC) against Proteus vulgaris is not above 0.03 µg/mL; against Staphylococcus aureus [17] it was 0.25 µg/mL; with Staphylococcus aureus [18], 0.25 µg/mL.
